Measured values taken from patent US20100184814A1, “Ester Derivatives of Losartan, Methods for Their Preparation, and Uses Thereof” (priority 2009, published 2010).

What was measured:
[1] = Pharmacokinetic study: plasma compound (II) (Losartan) after oral dosing of compounds of formula (I); format: in vivo; conditions: male Kumin mice, fasted, single oral gavage dose 5.8 mg/kg referenced to compound (II)
Description: Pharmacokinetic studies. The pharmacokinetics (PK) of compounds of formula (I) as well as Losartan were investigated in male Kumin mice. There were six mice per group and nine groups for this study. All mice were fasted overnight, following a single dose of 5.8 mg/kg referenced to the amount of metabolite, the compound of formula (2) from every compound of formula (1) studied. All mice were given dosing orally by gavage. The dosing vehicle used was propyleneglycol:water (1:1). The mice were fed 4 h post dose. Blood samples were collected at 0, 15, 30, 45 min, 1, 2, 4, 7, 10 and 15 h oral dosing. Approximately […] of blood was collected from the jugular vein in tubes containing EDTA, and plasma was obtained by centrifugation. Plasma samples were stored at −20° C. until analysis. Samples were analyzed for the compound of formula (II), (1-((2′-(2H-tetrazol-5-yl)biphenyl-4-yl)methyl)-2-butyl-4-chloro-1H-imidazol-5-yl)methanol, by LC/MS/MS.

[2] = background statement on Losartan; cited from earlier work
[3] = compound (II) (Losartan) measured in plasma

| SMILES | Bioavailability of compound (II) [1, 3] | Half-time (T1/2) of compound (II) [1, 3] | Cmax ([1]; compound (II) (Losartan) measured in plasma by LC/MS/MS, read-out: Maximum Blood Concentration (Cmax) of compound (II)) | bioavailability [2] | half-life [2] |
| --- | --- | --- | --- | --- | --- |
| CCCCc1nc(Cl)c(COC(=O)CN)n1Cc1ccc(-c2ccccc2-c2nn[nH]n2)cc1 [Compound (118), (S)-(1-((2′-(2H-tetrazol-5-yl)biphenyl-4-yl)methyl)-2-butyl-4-chloro-1H-imidazol-5-yl)methyl 2-aminoacetate] | 19% | 1.9 h | 504 nM |  |  |
| CCCCc1nc(Cl)c(CO)n1Cc1ccc(-c2ccccc2-c2nn[nH]n2)cc1 [Losartan, (1-((2′-(2H-tetrazol-5-yl)biphenyl-4-yl)methyl)-2-butyl-4-chloro-1H-imidazol-5-yl)methanol] |  |  |  | 25-35% | 1 to 2 h |
